{
  "source": "PubChem BioAssay (NCI)",
  "experiment_in_all_cases": "growth of human tumour cells (NCI), 384-well format",
  "key": {"SN12C renal": {"tested_on": "SN12C renal"}, "NCI-H23 lung": {"tested_on": "NCI-H23 lung"}, "A549 NSCLC": {"tested_on": "A549 NSCLC"}, "HL-60(TB) leukemia": {"tested_on": "HL-60(TB) leukemia"}, "U251 glioblastoma": {"tested_on": "U251 glioblastoma"}, "MDA-MB-231 breast": {"tested_on": "MDA-MB-231 breast"}, "HT29 colon": {"tested_on": "HT29 colon"}, "OVCAR-4 ovarian": {"tested_on": "OVCAR-4 ovarian"}, "RXF 393 renal": {"tested_on": "RXF 393 renal"}, "HOP-62 NSCLC": {"tested_on": "HOP-62 NSCLC"}, "PC-3 prostate": {"tested_on": "PC-3 prostate"}, "NCI-H460 NSCLC": {"tested_on": "NCI-H460 NSCLC"}, "T-47D breast": {"tested_on": "T-47D breast"}},
  "note": "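The concentration for 50% growth inhibition is given as GI50. Definition used: TGI = concentration required for complete inhibition of growth.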",
  "data": [
    {"smiles": "C[C@@H](O)[C@H](NC(=O)N[C@@H](CC(N)=O)c1nc([C@@H](N)CO)no1)C(=O)O", "values": [
      {"measurement": "GI50", "setting": "SN12C renal", "result": "> 100", "unit": "µM"},
      {"measurement": "TGI", "setting": "SN12C renal", "result": "> 100", "unit": "µM"},
      {"measurement": "GI50", "setting": "NCI-H23 lung", "result": "> 100", "unit": "µM"},
      {"measurement": "TGI", "setting": "NCI-H23 lung", "result": "> 100", "unit": "µM"},
      {"measurement": "GI50", "setting": "A549 NSCLC", "result": "> 100", "unit": "µM"},
      {"measurement": "TGI", "setting": "A549 NSCLC", "result": "> 100", "unit": "µM"},
      {"measurement": "GI50", "setting": "HL-60(TB) leukemia", "result": "> 100", "unit": "µM"},
      {"measurement": "TGI", "setting": "HL-60(TB) leukemia", "result": "> 100", "unit": "µM"},
      {"measurement": "GI50", "setting": "U251 glioblastoma", "result": "> 100", "unit": "µM"},
      {"measurement": "TGI", "setting": "U251 glioblastoma", "result": "> 100", "unit": "µM"},
      {"measurement": "GI50", "setting": "MDA-MB-231 breast", "result": "> 100", "unit": "µM"},
      {"measurement": "TGI", "setting": "MDA-MB-231 breast", "result": "> 100", "unit": "µM"},
      {"measurement": "GI50", "setting": "HT29 colon", "result": "> 100", "unit": "µM"},
      {"measurement": "TGI", "setting": "HT29 colon", "result": "> 100", "unit": "µM"},
      {"measurement": "GI50", "setting": "OVCAR-4 ovarian", "result": "> 100", "unit": "µM"},
      {"measurement": "TGI", "setting": "OVCAR-4 ovarian", "result": "> 100", "unit": "µM"},
      {"measurement": "GI50", "setting": "RXF 393 renal", "result": "> 100", "unit": "µM"},
      {"measurement": "TGI", "setting": "RXF 393 renal", "result": "> 100", "unit": "µM"},
      {"measurement": "GI50", "setting": "HOP-62 NSCLC", "result": "> 100", "unit": "µM"},
      {"measurement": "TGI", "setting": "HOP-62 NSCLC", "result": "> 100", "unit": "µM"},
      {"measurement": "GI50", "setting": "PC-3 prostate", "result": "> 100", "unit": "µM"},
      {"measurement": "TGI", "setting": "PC-3 prostate", "result": "> 100", "unit": "µM"},
      {"measurement": "GI50", "setting": "NCI-H460 NSCLC", "result": "> 100", "unit": "µM"},
      {"measurement": "TGI", "setting": "NCI-H460 NSCLC", "result": "> 100", "unit": "µM"},
      {"measurement": "GI50", "setting": "T-47D breast", "result": "> 100", "unit": "µM"},
      {"measurement": "TGI", "setting": "T-47D breast", "result": "> 100", "unit": "µM"}
    ]}
  ]
}
